Experimental data: patent US4939137A, “Ring-fused thienopyrimidinedione derivatives” (Ortho Pharmaceutical Corporation, priority 1989, dated 1990)
pIC50: −log10 of the molar value.

Tests used:
[1] = target: alpha-1 adrenergic receptor; assay: Brain Alpha-1 Radioreceptor Assay (3H-prazosin); conditions: guinea pig brain membranes, 30 minutes, 30° C., read-out: RECEPTOR BINDING ALPHA-1 (IC50)
Protocol: Membrane fragments were prepared from the brains of mature female guinea pigs after removal of the corpus striata. The alpha-1 adrenergic receptor sites were labeled with ^3 H-prazosin. Membrane fragments, ^3 H-prazosin and an unlabeled test compound were incubated for 30 minutes at 30° C. Compound bound to the receptor site was separated from the remaining unbound radioligand by vacuum filtration. Specific binding was determined by the difference between total counts bound and counts bound in the presence of 10-^5 M phentolamine.

5HT1A receptor = target: T1, 5HT1A receptor (Rattus norvegicus, UniProt P19327); assay: Brain Serotonin 5HT1A Radioreceptor Assay (3H-80H-DPAT); assay type: binding; conditions: for pIC50: rat frontal cortex membranes, 10 minutes, 37° C., read-out: RECEPTOR BINDING 5HT-1A (IC50)
T1 construct: Membrane fragments were prepared from the frontal cortex dissected from brains obtained from female rats; from tissue; host or cells: frontal cortex, female rats
T1 sequence (P19327 1-422): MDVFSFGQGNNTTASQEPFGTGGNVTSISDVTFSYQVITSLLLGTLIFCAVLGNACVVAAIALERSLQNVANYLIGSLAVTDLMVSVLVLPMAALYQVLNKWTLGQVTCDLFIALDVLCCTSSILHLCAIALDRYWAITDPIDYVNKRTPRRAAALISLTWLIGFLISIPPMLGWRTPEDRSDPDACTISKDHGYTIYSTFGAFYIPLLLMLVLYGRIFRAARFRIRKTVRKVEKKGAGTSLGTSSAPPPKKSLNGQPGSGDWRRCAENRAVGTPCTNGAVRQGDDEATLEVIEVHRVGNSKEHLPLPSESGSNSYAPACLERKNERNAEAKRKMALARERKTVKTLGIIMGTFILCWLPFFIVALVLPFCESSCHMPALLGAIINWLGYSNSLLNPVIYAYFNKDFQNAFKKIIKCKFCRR
Protocol: Membrane fragments were prepared from the frontal cortex dissected from brains obtained from female rats (~150 g). The 5HT1A sites were labeled with ^3 H-80H-dipropylaminotetralin (^3 H-80H-DPAT). Membrane fragments, ^3 H-80H-DPAT and an unlabeled test compound were incubated for 10 minutes at 37° C. The tubes were then placed in an ice bath for an additional 10 minutes. Compound bound to the receptor site was separated from the remaining unbound compound by vacuum filtration.
The ability of a nonlabeled compound to compete with ^3 H-80H-DPAT for binding sites was a measure of the compound's affinity for the 5HT1A receptor. Specific binding was determined by the difference between total counts bound and counts bound in the presence of 10^-5 M serotonin.
Data are presented at the IC50, the concentration of nonlabeled compound required to displace 50% of the ^3 H-80H-DPAT specifically bound to 5HT1A binding sites.

5HT2 receptor = target: T2, 5HT2 receptor (Rattus norvegicus, UniProt P14842); assay: Brain Serotonin 5HT2 Radioreceptor Assay (3H-ketanserin); assay type: binding; conditions: for pIC50: rat frontal cortex membranes, 15 minutes, 37° C., read-out: RECEPTOR BINDING 5HT-2 (IC50); for inhibition at 1 µM: 0.25 h, @ 10^-6, rat frontal cortex membranes, read-out: RECEPTOR BINDING 5HT-2, % @ 10^-6
T2 construct: Membrane fragments were prepared from the frontal cortex dissected from brains obtained from female rats; from tissue; host or cells: frontal cortex, female rats
Protocol: Membrane fragments were prepared from the frontal cortex dissected from brains obtained from female rats (~150 g). The 5HT2 sites were labeled with ^3 H-ketanserin. Membrane fragments, ^3 H-ketanserin and an unlabeled test compound were incubated for 15 minutes at 37° C. Compound bound to the receptor site was separated from the remaining unbound compound by vacuum filtration.
The ability of a nonlabeled compound to compete with ^3 H-ketanserin for binding sites was a measure of the compound's affinity for the 5HT2 receptor. Specific binding was determined by the difference between total counts bound and counts bound in the presence of 10^-6 M methysergide.
Data are presented as the IC50, the concentration of nonlabeled compound required to displace 50% of the ^3 H-ketanserin specifically bound to 5HT2 binding sites.

T2 sequence (P14842 whole entry, the tested form may be a part): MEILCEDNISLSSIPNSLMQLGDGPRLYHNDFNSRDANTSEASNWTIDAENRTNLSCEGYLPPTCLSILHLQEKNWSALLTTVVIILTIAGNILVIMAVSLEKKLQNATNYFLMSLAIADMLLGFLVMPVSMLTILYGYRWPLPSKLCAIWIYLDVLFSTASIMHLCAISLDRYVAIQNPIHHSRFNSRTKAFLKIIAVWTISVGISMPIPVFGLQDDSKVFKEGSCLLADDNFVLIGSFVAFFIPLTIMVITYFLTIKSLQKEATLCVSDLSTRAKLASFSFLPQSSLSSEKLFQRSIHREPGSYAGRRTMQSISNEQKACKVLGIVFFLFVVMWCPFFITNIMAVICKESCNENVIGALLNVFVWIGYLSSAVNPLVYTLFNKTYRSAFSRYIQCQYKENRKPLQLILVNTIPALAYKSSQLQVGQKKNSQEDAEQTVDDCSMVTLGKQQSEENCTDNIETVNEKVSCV

`O=C1CCn2c(=O)n(CCN3CCN(c4cccc(C(F)(F)F)c4)CC3)c(=O)c3csc1c32` [Example 6, 4-[2-[4-(3-Trifluoromethylphenyl)piperazin-1-yl]ethyl]-3,4,5,7,8,9-hexahydrothieno[4,3,2-de]-pyrido[1,2-c]pyrimidine-3,5,9-trione] showed a pIC50 [1] of 6.00, a pIC50 (5HT1A receptor) of 7.55 and a pIC50 (5HT2 receptor) of 6.15.
For `O=C1CCn2c(=O)n(CCN3CCN(c4cccc(Cl)c4)CC3)c(=O)c3csc1c32` [Example 7, 4-[2-[4-(3-Chlorophenyl)piperazin-1-yl]ethyl]-3,4,5,7,8,9-hexahydrothieno[4,3,2-de]pyrido[1,2-c]pyrimidine-3,5,9-trione], the pIC50 [1] was 6.74, the pIC50 (5HT1A receptor) was 8.30 and the pIC50 (5HT2 receptor) was 6.46.
`COc1ccccc1N1CCN(CCCn2c(=O)c3csc4c3n(c2=O)CCC4=O)CC1` [Example 10, 3,4,5,7,8,9-Hexahydro-4-[3-[4-(2-methoxyphenyl)piperazin-1-yl]propyl]thieno[4,3,2-de]pyrido[1,2-c]pyrimidine-3,5,9-trione] gave a pIC50 [1] of 7.68, a pIC50 (5HT1A receptor) of 8.30 and a pIC50 (5HT2 receptor) of 6.52.
`COc1ccccc1N1CCN(CCCCn2c(=O)c3csc4c3n(c2=O)CCC4=O)CC1` [Example 11, 3,4,5,7,8,9-Hexahydro-4-[4-[4-(2-methoxyphenyl)-piperazin-1-yl]butyl]thieno[4,3,2-de]pyrido[1,2-c]pyrimidine-3,5,9-trione] gave a pIC50 [1] of 9.30, a pIC50 (5HT1A receptor) of 9.05 and an inhibition at 1 µM (5HT2 receptor) of 33%.
For `COc1ccccc1N1CCN(CCCCCn2c(=O)c3csc4c3n(c2=O)CCC4=O)CC1` [Example 12, 3,4,5,7,8,9-Hexahydro-4-[5-[4-(2-methoxyphenyl)piperazin-1-yl]pentyl]thieno[4,3,2-de]pyrido[1,2-c]pyrimidine-3,5,9-trione], the pIC50 (5HT1A receptor) was 7.35 and the pIC50 (5HT2 receptor) was 5.82.
Work on `COc1ccccc1N1CCN(CCn2c(=O)c3csc4c3n(c2=O)CCCCC4=O)CC1` [Example 16, 4,7,8,9,10,11-Hexahydro-4-[2-[4-(2-methoxyphenyl)piperazin-1-yl]ethyl]thieno[4,3,2-de]pyrimido[3,4-a]azocine-3,5,11-trione] yielded a pIC50 [1] of 7.46, a pIC50 (5HT1A receptor) of 6.80 and a pIC50 (5HT2 receptor) of 5.70.
In the case of `O=C1CCn2c(=O)n(CCN3CC=C(c4ccccc4)CC3)c(=O)c3csc1c32` [Example 17, 3,4,5,7,8,9-Hexahydro-4-[2-(4-phenyl-1,2,3,6-tetrahydropyridin-1-yl)ethyl]thieno[4,3,2-de]pyrido[1,2-c]pyrimidine-3,5,9-trione], the pIC50 [1] was 8.12, the inhibition at 1 µM (5HT1A receptor; @ 10^-6, rat frontal cortex membranes, read-out: RECEPTOR BINDING 5HT-1A, % @ 10^-6) was 1.8% and the inhibition at 1 µM (5HT2 receptor) was 21%.
`O=C1CCn2c(=O)n(CCCCN3CCN(c4cccc(C(F)(F)F)c4)CC3)c(=O)c3csc1c32` [Example 18, 4-[4-[4-(3-Trifluoromethylphenyl)piperazin-1-yl]butyl]-3,4,5,7,8,9-hexahydrothieno[4,3,2-de]-pyrido[1,2-c]pyrimidine-3,5,9-trione] showed a pIC50 [1] of 5.35 and an inhibition at 1 µM (5HT2 receptor) of 47%.
For `O=C1CCn2c(=O)n(CCCCCN3CCN(c4cccc(C(F)(F)F)c4)CC3)c(=O)c3csc1c32` [Example 43], the pIC50 (5HT1A receptor) was 7.28 and the pIC50 (5HT2 receptor) was 6.37.
Work on `CON=C1CCn2c(=O)n(CCCCCN3CCN(c4cccc(C(F)(F)F)c4)CC3)c(=O)c3csc1c32` [Example 44, 4-[5-[4-(3-Trifluoromethylphenyl)piperazin-1-yl]-pentyl]-3,4,5,7,8,9-hexahydro-9-methoxyiminothieno[4,3,2-de]pyrido[1,2-c]pyrimidine-3,5-dione] yielded a pIC50 (5HT1A receptor) of 6.70 and a pIC50 (5HT2 receptor) of 6.89.
Work on `O=C1CCn2c(=O)n(CCCCCN3CCC(=C(c4ccc(F)cc4)c4ccc(F)cc4)CC3)c(=O)c3csc1c32` [Example 45, 4-[5-[4-[Bis(4-fluorophenyl)methylene]piperadin-1-yl]pentyl]-3,4,5,7,8,9-hexahydrothieno[4,3,2-de]pyrimidine-3,5,9-trione Monooxalate] yielded a pIC50 (5HT1A receptor) of 6.62 and a pIC50 (5HT2 receptor) of 7.26.
